Test results taken from patent US8399459B2, “1,4 oxazines as BACE1 and/or BACE2 inhibitors” (Hoffmann-La Roche Inc., priority 2011, dated 2013).

Experiments:
[1] = biological target: T1, CYP2D6 (Homo sapiens, UniProt P10635); assay: CYP inhibition assay, human liver microsomes, dextromethorphan O-demethylase; assay type: in vitro ADME; conditions: pooled human liver microsomes, read-out: CYP IC50 2D6
T1 construct: 0.2 mg/ml pooled human liver microsomes; from tissue; host or cells: pooled human liver microsomes
T1 sequence (P10635 whole entry): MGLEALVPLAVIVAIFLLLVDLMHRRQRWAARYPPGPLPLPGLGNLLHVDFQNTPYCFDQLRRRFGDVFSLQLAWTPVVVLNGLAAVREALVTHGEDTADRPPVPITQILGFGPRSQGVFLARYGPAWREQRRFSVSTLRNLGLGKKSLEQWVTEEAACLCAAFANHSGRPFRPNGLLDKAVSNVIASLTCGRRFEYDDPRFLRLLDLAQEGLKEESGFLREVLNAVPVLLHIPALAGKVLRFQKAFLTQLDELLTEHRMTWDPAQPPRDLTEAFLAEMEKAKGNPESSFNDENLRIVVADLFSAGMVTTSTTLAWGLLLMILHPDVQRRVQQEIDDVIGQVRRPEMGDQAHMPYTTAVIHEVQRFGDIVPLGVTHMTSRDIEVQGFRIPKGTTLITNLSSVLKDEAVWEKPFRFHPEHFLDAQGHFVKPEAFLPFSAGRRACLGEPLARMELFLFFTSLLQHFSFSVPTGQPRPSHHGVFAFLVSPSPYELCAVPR
Experimental: (§1) Inhibition of cytochromes P450 (CYPs) 2C9, 2D6 and 3A4 was assessed using human liver microsomes and CYP-selective substrate metabolism reactions. 50 μl incubations were made up containing (finally) 0.2 mg/ml pooled human liver microsomes, 5 μM substrate (diclofenac for CYP2C9 [4′hydroxylase], dextromethorphan for CYP2D6 [O-demethylase] or midazolam for CYP3A4 [1′hydroxylase]), 0.25 μL DMSO containing test inhibitor and NADPH regenerating system. Test inhibitor concentrations of 50, 16.7, 5.6, 1.9, 0.6 and 0.2 μM were assessed in singlicate. Incubations were prewarmed to 37° C. for 10 minutes before initiation by addition of NADPH regenerating system. Incubations were quenched after 5 minutes (20 minutes for dextromethorphan) by addition of 50 μl cold acetonitrile containing 20 ng/ml 4-OH-diclofenac-13C6, 20 ng/mL dextrorphan-D3 and 20 ng/mL 1-OH-midazolam-D4. Quenched incubates were stored at −20° C. for at least 1 hour before centrifugation (20,000×g, 20 minutes). Supernatants were removed and diluted 1:1 with water prior to analysis using a RapidFire sample injector system and API4000 mass spectrometer. Peak areas for substrate, metabolite and stable-labelled metabolite standard were determined using MS/MS. The peak area ratios between the metabolite generated by the enzymatic reaction and the internal standard were used in subsequent calculations. The percentage of (DMSO) control activity was calculated for each incubate and IC50 values estimated by non-linear regression. Sulfaphenazole, quinidine or ketoconazole were tested in each CYP2C9, CYP2D6 or CYP3A4 inhibition experiment, respectively, to ensure assay sensitivity and reproducibility. (Validated assays for human cytochrome P450 activities, R. L. Walsky and R. S. Obach, Drug Metabolism and Disposition 32: 647-660, 2004. and S. Fowler and H. Zhang, The AAPS Journal, Vol. 10, No. 2, 410-424, 2008.)

[2] = biological target: T2, CYP2C9 (Homo sapiens, UniProt P11712); assay: CYP inhibition assay, human liver microsomes, diclofenac 4′hydroxylase; assay type: in vitro ADME; conditions: pooled human liver microsomes, read-out: CYP IC50 2C9
T2 construct: 0.2 mg/ml pooled human liver microsomes; from tissue; host or cells: pooled human liver microsomes
T2 sequence (P11712 whole entry): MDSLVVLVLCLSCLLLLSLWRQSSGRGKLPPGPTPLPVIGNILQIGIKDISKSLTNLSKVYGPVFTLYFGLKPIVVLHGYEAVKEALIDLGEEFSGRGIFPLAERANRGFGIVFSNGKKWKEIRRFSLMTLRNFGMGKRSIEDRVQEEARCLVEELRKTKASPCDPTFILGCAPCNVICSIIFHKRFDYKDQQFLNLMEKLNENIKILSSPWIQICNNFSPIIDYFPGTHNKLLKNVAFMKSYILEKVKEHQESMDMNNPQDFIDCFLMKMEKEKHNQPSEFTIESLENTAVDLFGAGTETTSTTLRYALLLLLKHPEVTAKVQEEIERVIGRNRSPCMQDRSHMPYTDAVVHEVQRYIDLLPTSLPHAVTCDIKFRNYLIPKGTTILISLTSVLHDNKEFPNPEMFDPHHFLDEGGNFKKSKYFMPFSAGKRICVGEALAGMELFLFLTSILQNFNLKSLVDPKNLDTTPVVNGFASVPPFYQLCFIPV
Experimental: as §1

[3] = biological target: T3, cathepsin D (from human liver) (Homo sapiens, UniProt P07339); assay: Cathepsin D fluorescent substrate kinetic assay; assay type: biochemical; conditions: pH 5.5, substrate […]-MR121
T3 construct: cathepsin D (from human liver, Calbiochem); purchased Calbiochem; host or cells: purified from human liver
T3 sequence (P07339 65-162 limits assumed): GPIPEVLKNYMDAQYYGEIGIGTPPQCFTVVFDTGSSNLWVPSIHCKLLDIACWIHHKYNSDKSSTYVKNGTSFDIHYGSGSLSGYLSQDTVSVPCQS
T3 sequence (P07339 169-412 limits assumed): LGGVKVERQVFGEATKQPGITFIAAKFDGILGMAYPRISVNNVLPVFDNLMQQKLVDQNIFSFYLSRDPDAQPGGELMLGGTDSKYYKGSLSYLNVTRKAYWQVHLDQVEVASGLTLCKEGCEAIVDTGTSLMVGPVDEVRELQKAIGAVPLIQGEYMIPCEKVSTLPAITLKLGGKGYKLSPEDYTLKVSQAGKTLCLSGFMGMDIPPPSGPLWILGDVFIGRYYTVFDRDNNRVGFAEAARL
Description: (§2) Cathepsin D and Cathepsin E Fluorescent Substrate Kinetic Assays
(§3) The MR121 fluorescence assays described below are based on the fact that MR121 forms a non-fluorescent ground state complex with tryptophan. In solution this formation occurs at millimolar concentrations of tryptophan. The mechanism can be used to design a generic biochemical assay for proteases. A substrate peptide is labeled at the N-terminus with tryptophan and at the C-terminus with the fluorophore MR121 (for cathepsin D the 10 amino acid peptide […]-MR121 was used; for cathepsin E, MR121-[…] was used). In absence of protease activity, the substrates remain intact and the MR121 fluorescence is reduced by the high local Trp-concentration. If the substrates are cleaved by the enzymes the MR121 fluorescence is recovered.
(§4) The fluorescent substrate cathepsin D and cathepsin E kinetic assays were performed at room temperature in 384-well microtiter plates (black with clear flat bottom, non binding surface plates from Corning) in a final volume of 51 μl. […] The enzymatic reaction was followed in a plate: vision reader (Perkin Elmer) (excitation wavelength: 630 nm; emission: 695 nm) for at least 30 minutes in a kinetic measurement detecting an increase of MR121 fluorescence during the reaction time. […]

[4] = biological target: T4, recombinant human cathepsin E (Homo sapiens, UniProt P14091); assay: Cathepsin E fluorescent substrate kinetic assay; assay type: biochemical; conditions: pH 4.5, substrate MR121-[…]
T4 construct: purchased R&D Systems
T4 sequence (P14091 54-396): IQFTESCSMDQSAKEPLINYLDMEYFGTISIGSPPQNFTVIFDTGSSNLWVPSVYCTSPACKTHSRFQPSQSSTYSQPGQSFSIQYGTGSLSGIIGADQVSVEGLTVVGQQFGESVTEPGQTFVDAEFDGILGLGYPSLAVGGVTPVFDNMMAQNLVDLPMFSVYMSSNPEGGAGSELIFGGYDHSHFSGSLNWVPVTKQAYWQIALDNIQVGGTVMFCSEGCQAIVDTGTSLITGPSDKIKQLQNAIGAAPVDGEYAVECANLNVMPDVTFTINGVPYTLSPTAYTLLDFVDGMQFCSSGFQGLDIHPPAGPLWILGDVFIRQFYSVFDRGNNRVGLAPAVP
Description: as §2, §3, §4

IC50 [1] [µM] | IC50 [2] [µM] | IC50 [3] [µM] | IC50 [4] [µM] | Structure (SMILES)
41 | > 50 | 34 | 13 | CC1(c2cc(-c3cncnc3)ccc2F)COCC(N)=N1 (centres unmarked) [Example 36, 5-(2-Fluoro-5-pyrimidin-5-yl-phenyl)-5-methyl-5,6-dihydro-2H-[1,4]oxazin-3-ylamine]
> 50 | 3.7 | 2.8 | 3.8 | CC1(c2cccc(-c3cc(Cl)cc(Cl)c3)c2)COCC(N)=N1 (centres unmarked) [Example 32, 5-(3′,5′-Dichloro-biphenyl-3-yl)-5-methyl-5,6-dihydro-2H-[1,4]oxazin-3-ylamine]
